These results are taken from article PMC8011931, “Identification, Structure–Activity Relationship, and Biological Characterization of 2,3,4,5-Tetrahydro-1H-pyrido[4,3-b]indoles as a Novel Class of CFTR Potentiators” (Journal of Medicinal Chemistry, 2020).

Values after ≈ are worked out from the molar mass of the structure shown.

Data set [1] in a line: Liver microsomal stability, phase I (NADPH), rat. The following applies: for half-life at 1 h, 4.6 µM / half-life at 4.6 μM: rat, liver microsomes, pH 7.5, 0.1% DMSO, n ≥ 3, read-out: rat LM_NADPH t1/2; for rat LM_NADPH parent compound remaining at the last time point (in parentheses): 4.6 μM, 60 min. Format: in vitro ADME. As to the method: Phase I: 10 mM DMSO stock solution of the test compound was preincubated at 37 °C for 15 min with rat, dog, or human liver microsomes in 0.1 M Tris–HCl buffer (pH 7.5) with 10% DMSO. The final concentration was 4.6 μM. After preincubation, the cofactors (NADPH, G6P, G6PDH, and MgCl2 predissolved in 0.1 M Tris–HCl) were added to the incubation mixture and the incubation was continued at 37 °C for 1 h.
For both phase I and II studies: At each time point (0, 5, 15, 30, and 60 min), 30 μL of the incubation mixture was diluted with 200 μL of cold CH3CN spiked with 200 nM of an appropriate internal standard, followed by centrifugation at 3270g for 15 min. The supernatant was further diluted with H2O (1:1) for analysis. A reference incubation mixture (microsomes without cofactors) was prepared for each test compound and analyzed at t = 0 and 60 min in order to verify the compound’s stability in the matrix. The two time points were diluted as for the time points of the incubation mixture above. The supernatants were analyzed by LC/MS–MS on a Waters ACQUITY UPLC/MS TQD system consisting of a TQD (triple quadrupole detector) mass spectrometer equipped with an electrospray ionization interface and a photodiode array eλ detector. Electrospray ionization was applied in positive mode. Compound-dependent parameters as MRM transitions and collision energy were developed for each compound. The analyses were run on an ACQUITY UPLC BEH C18 (50 × 2.1 mm ID, particle size 1.7 μm) with a VanGuard BEH C18 precolumn (5 × 2.1 mm ID, particle size 1.7 μm) at 40 °C, using H2O + 0.1% HCOOH (A) and CH3CN + 0.1% HCOOH (B) as the mobile phase. The percentage of test compound remaining at each time point relative to t = 0 was calculated by the response factor on the basis of the internal standard peak area. The percentage of test compound versus time was plotted and fitted by GraphPad Prism (GraphPad Software, Version 5 for Windows, CA, USA, www.graphpad.com) to estimate the compound’s half-life (t1/2), which was reported as mean value along with the standard deviation (n = 3).
In general terms: Microsomes from liver hold many membrane-bound enzymes, among them those of drug oxidation.

For data set [2], the system named is HepG2 cells. Nature of the data set: HepG2 cell toxicity assay (CTG and MTT). The format is cell-based. The following applies: at 20 μM, 24 h, CTG and MTT assays; percent of vehicle-treated controls. How it is done:
In order to assess a possible liver toxicity liability, the selected analogues were also tested in HepG2 cells at two concentrations (2.0 and 20 μM) for 24 h, along with a reference compound (rotenone). A reduction of cell viability to less than 80% was set as the threshold for estimation of cytotoxicity.[42]
To increase the detection of drug-induced mitochondrial effects in a preclinical cell-based assay, HepG2 hepatocellular carcinoma cells (ATCC HB-8065) were forced to rely on mitochondrial oxidative phosphorylation rather than glycolysis by substituting galactose (10 mM) for glucose (25 mM) in the growth media (DMEM, Life Technologies).
High-glucose media: high-glucose DMEM (Invitrogen 11995-065) containing 25 mM glucose, 1.0 mM sodium pyruvate, supplemented with 5 mM N-(2-hydroxyethyl)piperazine-N′-(2-ethanesulfonic acid) (HEPES), and 10% FBS. Galactose media: DMEM deprived of glucose (Invitrogen 11966-025), supplemented with 10 mM galactose, 2.0 mM glutamine (6 mM final), 5.0 mM HEPES, 10% FBS, and 1.0 mM sodium pyruvate.
For the cytotoxicity assay, cells were plated at 20,000 cells/well in 100 μL of cell culture media in 96-well plates and allowed to grow overnight. The cells were treated for 24 h with 2.0 or 20 μM of each compound. All compounds were dissolved in DMSO with a stock concentration of 4 mM. The first dilution step of compounds was prepared in DMSO (200× stock solutions), while the second dilution step was carried out in a complete cell culture medium (5% DMSO). Of this dilution, 10 μL were added to the wells of the 96-well plate, with a final DMSO concentration of 0.5%. Rotenone, a well-known mitochondrial inhibitor, was used as a reference compound. After treatment, cellular viability was assessed by using two different assays, run on independent plates: the CellTiter-Glo (CTG) Luminescent Cell Viability Assay (Promega), which determines the number of viable cells based on the quantitation of the ATP present, and the thiazolyl blue tetrazolium […] (MTT) dye (Aldrich), which is converted to water-insoluble MTT formazan crystals by mitochondrial dehydrogenases of living cells. Each experimental condition (i.e., control, reference, and compounds’ doses) has been tested in three technical replicates.

Data set [3] in a line: Aqueous kinetic solubility assay. Format: physicochemical. The following applies: PBS, pH 7.4; n = 3. As to the method: The aqueous kinetic solubility was determined from a 10 mM DMSO stock solution of test compound in PBS at pH 7.4. The study was performed by incubation of an aliquot of 10 mM DMSO stock solution in PBS (pH 7.4) at a target concentration of 250 μM (2.5% DMSO). The incubation was carried out under shaking at 25 °C for 24 h, followed by centrifugation at 21,100g for 30 min. The supernatant was further diluted (4:1) with CH3CN and the dissolved test compound was quantified by UV at 215 nm on a Waters ACQUITY UPLC/MS system consisting of an SQD mass spectrometer equipped with an electrospray ionization interface and a photodiode array detector. Electrospray ionization in the positive mode was used in the mass scan range of 100–500 Da. The PDA range was 210–400 nm. The analyses were run on an ACQUITY UPLC BEH C18 column (50 × 2.1 mm ID, particle size 1.7 μm) with a VanGuard BEH C18 precolumn (5 × 2.1 mm ID, particle size 1.7 μm) using 10 mM NH4OAc in H2O at pH 5 adjusted with AcOH (A) and 10 mM NH4OAc in CH3CN–H2O (95:5) at pH 5 (B) as the mobile phase.

The kinetic solubility is the concentration staying in solution when a stock, usually in DMSO, is diluted into the medium. Regarding `COc1ccc2[nH]c3c(c2c1)CN(C(=O)c1cc(C(F)(F)F)[nH]n1)CC3` [Compound 3, (8-Methoxy-1,3,4,5-tetrahydropyrido[4,3-b]indol-2-yl)-[5-(trifluoromethyl)-1H-pyrazol-3-yl]methanone], the half-life at 1 h, 4.6 µM in data set [1] was 30 ± 1 min. For the same compound, in data set [2], the “HepG2 (% survival)” value is on record as over 80%. Further, in data set [3], the solubility (kinetic) at 24 h, 250 µM amounted to 237 ± 11 µM (≈ 86.3 µg/mL).
With `O=C(c1cc(C(F)(F)F)[nH]n1)N1CCc2[nH]c3c(F)cccc3c2C1` [Compound 20, (6-Fluoro-1,3,4,5-tetrahydro-2H-pyrido[4,3-b]indol-2-yl)-(5-(trifluoromethyl)-1H-pyrazol-3-yl)methanone], in data set [1], the “rat LM_NADPH parent compound remaining at the last time point (in parentheses)” value turned out to be 64% and the half-life at 4.6 μM was over 60 min. In data set [2], the “HepG2 (% survival)” value is recorded as over 80%. In data set [3], this compound displayed a kinetic solubility at 24 h, 250 µM of 9 ± 4 µM (≈ 3.17 µg/mL).
Consider `COc1cc(F)c2[nH]c3c(c2c1)CN(C(=O)c1cc(C(F)(F)F)[nH]n1)CC3` [Compound 25, (6-Fluoro-8-methoxy-1,3,4,5-tetrahydro-2H-pyrido[4,3-b]indol-2-yl)-(5-(trifluoromethyl)-1H-pyrazol-3-yl)methanone], for which, in data set [1], the half-life at 1 h, 4.6 µM turned out to be 20 ± 1 min. In addition, in data set [2], the “HepG2 (% survival)” value is given as over 80%. The compound further returned a solubility (kinetic) at 24 h, 250 µM in data set [3] of 2 ± 1 µM (≈ 0.765 µg/mL).
Taken in the same sequence, the figures for `O=C(c1cc(C(F)(F)F)[nH]n1)N1CCc2[nH]c3c(F)ccc(F)c3c2C1` [Compound 29, (6,9-Difluoro-1,3,4,5-tetrahydro-2H-pyrido[4,3-b]indol-2-yl)-(5-(trifluoromethyl)-1H-pyrazol-3-yl)methanone] were 50 ± 9 min, over 80% and 36 ± 5 µM (≈ 13.3 µg/mL).
As for `Cc1ccc(F)c2[nH]c3c(c12)CN(C(=O)c1cc(C(F)(F)F)[nH]n1)CC3` [Compound 30, (6-Fluoro-9-methyl-1,3,4,5-tetrahydro-2H-pyrido[4,3-b]indol-2-yl)-(5-(trifluoromethyl)-1H-pyrazol-3-yl)methanone], the half-life at 1 h, 4.6 µM in data set [1] came to 32 ± 1 min. Further, in data set [2], the “HepG2 (% survival)” value was over 80%. Also, the solubility (kinetic) at 24 h in data set [3] is under 1 µM.
Consider `Cc1ccc(F)c2[nH]c3c(c12)CN(C(=O)c1cc(C(F)(F)F)[nH]n1)[C@H](C)C3` [Compound 39, (R)-(6-Fluoro-3,9-dimethyl-1,3,4,5-tetrahydro-2H-pyrido[4,3-b]indol-2-yl)-(5-(trifluoromethyl)-1H-pyrazol-3-yl)methanone], for which, in data set [1], the “rat LM_NADPH parent compound remaining at the last time point (in parentheses)” value stood at 70% and the half-life at 4.6 μM is over 60 min. In addition, the “HepG2 (% survival)” value in data set [2] is on record as over 80%. Further, in data set [3], the solubility (kinetic) at 24 h is under 1 µM.
